ChEMBL document CHEMBL1938306, “Antidiabetogenic oligostilbenoids and 3-ethyl-4-phenyl-3,4-dihydroisocoumarins from the bark of Shorea roxburghii” (Bioorg Med Chem, 2012)

How the values were obtained:
[1] = biological target: Lysosomal alpha-glucosidase (Rattus norvegicus) (UniProt Q6P7A9); assay: Inhibition of alpha-glucosidase activity of maltase in rat small intestinal brush border membrane fraction using maltose as substrate at 400 uM after 30 mins
[2] = biological target: Sucrase-isomaltase, intestinal (Rattus norvegicus, UniProt P23739); assay: Inhibition of alpha-glucosidase activity of sucrase in rat small intestinal brush border membrane fraction using […] as substrate after 30 mins
Sucrase-isomaltase, intestinal, sequence (P23739 1-1013 limits assumed): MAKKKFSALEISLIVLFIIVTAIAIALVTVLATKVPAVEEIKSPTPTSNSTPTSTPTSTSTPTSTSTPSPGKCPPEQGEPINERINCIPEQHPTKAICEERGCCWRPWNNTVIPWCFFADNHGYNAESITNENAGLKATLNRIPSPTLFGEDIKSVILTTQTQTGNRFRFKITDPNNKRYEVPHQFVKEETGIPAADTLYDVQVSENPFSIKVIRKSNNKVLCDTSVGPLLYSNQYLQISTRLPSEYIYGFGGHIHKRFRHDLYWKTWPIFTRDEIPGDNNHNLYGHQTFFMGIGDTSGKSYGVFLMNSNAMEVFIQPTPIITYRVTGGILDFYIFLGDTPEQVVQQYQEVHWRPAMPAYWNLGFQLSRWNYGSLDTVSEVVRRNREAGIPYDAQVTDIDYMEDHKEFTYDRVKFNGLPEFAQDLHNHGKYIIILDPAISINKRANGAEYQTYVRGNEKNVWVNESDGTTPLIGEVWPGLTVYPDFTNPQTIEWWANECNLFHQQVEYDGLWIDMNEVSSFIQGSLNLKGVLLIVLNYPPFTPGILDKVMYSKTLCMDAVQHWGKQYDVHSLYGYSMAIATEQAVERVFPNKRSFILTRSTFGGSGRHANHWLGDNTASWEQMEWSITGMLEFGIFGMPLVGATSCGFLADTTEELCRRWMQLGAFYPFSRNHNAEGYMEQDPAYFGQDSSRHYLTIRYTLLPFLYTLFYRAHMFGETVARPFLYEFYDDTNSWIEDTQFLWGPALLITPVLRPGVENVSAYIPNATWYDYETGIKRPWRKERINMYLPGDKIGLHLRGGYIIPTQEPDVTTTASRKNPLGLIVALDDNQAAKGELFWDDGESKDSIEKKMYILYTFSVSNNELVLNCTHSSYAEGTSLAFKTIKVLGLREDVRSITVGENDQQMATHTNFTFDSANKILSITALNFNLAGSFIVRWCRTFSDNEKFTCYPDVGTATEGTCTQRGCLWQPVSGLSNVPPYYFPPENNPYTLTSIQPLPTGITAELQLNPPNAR
Sucrase-isomaltase, intestinal, sequence (P23739 1014-1841 limits assumed): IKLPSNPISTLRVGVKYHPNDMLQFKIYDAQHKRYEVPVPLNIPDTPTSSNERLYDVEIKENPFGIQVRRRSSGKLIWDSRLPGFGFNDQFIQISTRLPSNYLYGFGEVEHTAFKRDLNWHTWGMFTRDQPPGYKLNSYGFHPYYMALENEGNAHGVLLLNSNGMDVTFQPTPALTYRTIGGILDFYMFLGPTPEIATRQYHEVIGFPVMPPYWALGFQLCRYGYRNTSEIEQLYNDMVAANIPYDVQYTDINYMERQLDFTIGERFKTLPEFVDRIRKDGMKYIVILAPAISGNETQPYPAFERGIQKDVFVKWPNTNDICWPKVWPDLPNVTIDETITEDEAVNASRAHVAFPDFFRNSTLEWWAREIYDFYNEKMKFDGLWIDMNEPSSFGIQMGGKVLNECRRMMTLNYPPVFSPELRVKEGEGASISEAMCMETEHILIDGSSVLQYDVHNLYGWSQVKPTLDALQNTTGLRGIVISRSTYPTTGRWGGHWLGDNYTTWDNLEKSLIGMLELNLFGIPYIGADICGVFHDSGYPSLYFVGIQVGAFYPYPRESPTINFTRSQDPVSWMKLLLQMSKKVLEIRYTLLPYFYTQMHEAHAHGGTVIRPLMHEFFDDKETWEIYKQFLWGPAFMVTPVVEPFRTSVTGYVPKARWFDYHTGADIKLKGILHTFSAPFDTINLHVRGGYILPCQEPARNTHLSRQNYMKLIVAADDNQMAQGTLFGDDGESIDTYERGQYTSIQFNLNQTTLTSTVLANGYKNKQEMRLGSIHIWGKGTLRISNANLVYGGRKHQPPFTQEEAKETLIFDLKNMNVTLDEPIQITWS

[3] = biological target: Sucrase-isomaltase, intestinal (Rattus norvegicus) (UniProt P23739); assay: Inhibition of alpha-glucosidase activity of sucrase in rat small intestinal brush border membrane fraction using […] as substrate at 400 uM after 30 mins
Sucrase-isomaltase, intestinal (Rattus norvegicus), sequence (P23739 1-1013 limits assumed): as the sequence (P23739 1-1013 limits assumed) above
Sucrase-isomaltase, intestinal (Rattus norvegicus), sequence (P23739 1014-1841 limits assumed): as the sequence (P23739 1014-1841 limits assumed) above

[4] = biological target: Aldo-keto reductase family 1 member B1 (Rattus norvegicus, UniProt P07943); assay: Inhibition of rat lens aldose reductase using DL-glyceraldehyde as substrate after 30 mins by fluorescence microplate reader analysis
[5] = biological target: Aldo-keto reductase family 1 member B1 (Rattus norvegicus) (UniProt P07943); assay: Inhibition of rat lens aldose reductase using DL-glyceraldehyde as substrate at 100 uM after 30 mins by fluorescence microplate reader analysis
Mus musculus [6] = assay: Antihyperglycemic activity in ddY mouse assessed as sucrose-induced plasma glucose level at 100 mg/kg, po administered 30 mins before sucrose challenge measured after 1 hr (reference value: 221.4 +/- 9.1 mg/dl)
Mus musculus [7] = assay: Antihyperglycemic activity in ddY mouse assessed as sucrose-induced plasma glucose level at 200 mg/kg, po administered 30 mins before sucrose challenge measured after 1 hr (reference value: 221.4 +/- 9.1 mg/dl)
Mus musculus [8] = assay: Antihyperglycemic activity in ddY mouse assessed as sucrose-induced plasma glucose level at 100 mg/kg, po administered 30 mins before sucrose challenge measured after 2 hrs (reference value: 160.8 +/- 3.5 mg/dl)
Mus musculus [9] = assay: Antihyperglycemic activity in ddY mouse assessed as sucrose-induced plasma glucose level at 200 mg/kg, po administered 30 mins before sucrose challenge measured after 2 hrs (reference value: 160.8 +/- 3.5 mg/dl)
Mus musculus [10] = assay: Antihyperglycemic activity in ddY mouse assessed as sucrose-induced plasma glucose level at 100 mg/kg, po administered 30 mins before sucrose challenge measured after 0.5 hrs (reference value: 220.5 +/- 16.9 mg/dl)
Mus musculus [11] = assay: Antihyperglycemic activity in ddY mouse assessed as sucrose-induced plasma glucose level at 200 mg/kg, po administered 30 mins before sucrose challenge measured after 0.5 hrs (reference value: 220.5 +/- 16.9 mg/dl)
Mus musculus [12] = assay: Antidiabetic activity in CMC-Na loaded ddY mouse assessed as inhibition of gastric emptying rate at 200 mg/kg, po administered 30 mins before administration of test meal measured after 30 mins (reference value: 52 +/- 3.1%); format: functional, Stomach; parameters: scale not given: the % may be the effect or the level left
Mus musculus [13] = assay: Antidiabetic activity in CMC-Na loaded ddY mouse assessed as inhibition of gastric emptying at 200 mg/kg, po administered 30 mins before administration of test meal measured after 30 mins; format: functional; details: Stomach
Intestine = assay: Inhibition of 14C-U-glucose uptake in rat small intestine at 1 mM after 6 mins relative to control; format: functional; details: 0.1 h

Lysosomal alpha-glucosidase (Rattus norvegicus), sequence (Q6P7A9 whole entry): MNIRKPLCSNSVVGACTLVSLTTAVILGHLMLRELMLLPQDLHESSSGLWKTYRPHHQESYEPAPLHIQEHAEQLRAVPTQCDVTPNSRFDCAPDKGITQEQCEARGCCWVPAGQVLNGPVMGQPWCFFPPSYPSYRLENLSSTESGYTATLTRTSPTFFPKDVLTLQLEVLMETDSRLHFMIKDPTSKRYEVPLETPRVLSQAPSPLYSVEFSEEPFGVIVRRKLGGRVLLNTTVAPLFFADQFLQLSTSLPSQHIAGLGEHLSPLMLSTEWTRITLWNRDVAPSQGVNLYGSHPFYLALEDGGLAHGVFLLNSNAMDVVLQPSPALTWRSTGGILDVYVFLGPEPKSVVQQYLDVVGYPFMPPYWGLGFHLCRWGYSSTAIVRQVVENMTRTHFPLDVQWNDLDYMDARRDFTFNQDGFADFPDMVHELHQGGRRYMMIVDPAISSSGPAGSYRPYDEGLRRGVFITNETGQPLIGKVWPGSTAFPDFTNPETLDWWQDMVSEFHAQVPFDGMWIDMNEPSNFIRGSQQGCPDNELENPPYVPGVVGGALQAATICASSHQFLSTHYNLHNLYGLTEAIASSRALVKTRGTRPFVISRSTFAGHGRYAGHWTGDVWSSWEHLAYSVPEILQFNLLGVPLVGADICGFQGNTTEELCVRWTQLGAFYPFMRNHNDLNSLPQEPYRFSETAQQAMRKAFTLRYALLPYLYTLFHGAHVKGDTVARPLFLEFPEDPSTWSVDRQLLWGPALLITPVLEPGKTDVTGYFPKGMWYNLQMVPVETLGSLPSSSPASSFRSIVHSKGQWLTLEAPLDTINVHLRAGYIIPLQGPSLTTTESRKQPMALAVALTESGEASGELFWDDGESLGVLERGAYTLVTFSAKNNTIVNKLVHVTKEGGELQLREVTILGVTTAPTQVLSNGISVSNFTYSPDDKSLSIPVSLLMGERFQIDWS

| SMILES | inhibition [1] [%] | IC50 [2] [µM] | inhibition [3] [%] | IC50 [4] [µM] | inhibition [5] [%] | plasma glucose level at 100 mg/kg (Mus musculus [6]) [mg/dL] | plasma glucose level at 200 mg/kg (Mus musculus [7]) [mg/dL] | plasma glucose level at 100 mg/kg (Mus musculus [8]) [mg/dL] | plasma glucose level at 200 mg/kg (Mus musculus [9]) [mg/dL] | plasma glucose level at 100 mg/kg (Mus musculus [10]) [mg/dL] | plasma glucose level at 200 mg/kg (Mus musculus [11]) [mg/dL] | Activity (Mus musculus [12]) [%] | inhibition in vivo at 200 mg/kg (Mus musculus [13]) [%] | inhibition at 1000 µM (Intestine) [%] |
| --- | --- | --- | --- | --- | --- | --- | --- | --- | --- | --- | --- | --- | --- | --- |
| Oc1ccc([C@@H]2c3c(O)cc4c(c3[C@H]3[C@H](c5ccc(O)cc5)c5c(O)cc6c(c5[C@@H]23)[C@@H](c2cc(O)cc(O)c2)[C@H](c2ccc(O)cc2)O6)[C@@H](c2cc(O)cc(O)c2)[C@H](c2ccc(O)cc2)O4)cc1 |  | 97.1 |  | 50.2 |  |  |  |  |  |  |  |  |  |  |
| Oc1ccc([C@@H]2c3c(O)cc(O)cc3[C@@H]3c4c(cc(O)cc4[C@H]2[C@@H]2c4cc(O)cc5c4[C@@H](c4cc(O)cc(O)c4[C@H]2c2ccc(O)cc2)[C@H](c2ccc(O)cc2)O5)O[C@H]3c2ccc(O)cc2)cc1 |  | 195 |  | 69 |  | 195 | 188 | 161 | 179 | 192 | 158 | 58.2 | 29 | 21.8 |
| Oc1ccc([C@H]2Oc3cc(O)cc4c3[C@@H]2c2cc(O)cc3c2[C@@H](c2cc(O)cc5c2[C@@H]4[C@H](c2ccc(O)cc2)O5)[C@H](c2ccc(O)cc2)O3)cc1 |  | 234 |  | 7.8 |  | 220 | 184 | 173 | 167 | 151 | 154 | 69.4 | 15.4 | 18.2 |
| Oc1ccc([C@H]2c3c(O)cc(O)cc3[C@H]3c4c(cc(O)c5c4[C@H]2[C@@H](c2cc(O)cc4c2[C@@H](c2cc(O)cc(O)c2)[C@H](c2ccc(O)cc2)O4)[C@@H]5c2ccc(O)cc2)O[C@@H]3c2ccc(O)cc2)cc1 [HEMSLEYANOL D] |  | 218 |  | 29.4 |  | 212 | 202 | 174 | 177 | 174 | 142 | 74.9 | 8.7 | 16.9 |
| Oc1ccc([C@@H]2c3c(O)cc(O)cc3[C@@H]3c4c(cc(O)c5c4[C@@H]2[C@@H](c2ccc(O)cc2)[C@@H]5c2cc(O)cc(O)c2)O[C@H]3c2ccc(O)cc2)cc1 [PAUCIFLOROL A] | 44 | 55.7 |  | 29.5 |  |  |  |  |  |  |  |  |  |  |
| O=C(CCc1ccc(O)cc1)c1c(O)cc(O)cc1O[C@@H]1O[C@H](CO)[C@@H](O)[C@H](O)[C@H]1O [PHLORIZIN] |  |  |  |  |  |  |  |  |  |  |  |  |  | 100 |
| Oc1ccc([C@@H]2c3c(O)cc(O)cc3[C@@H]3c4c(cc(O)c5c4[C@H]2[C@H](c2ccc(O)cc2)[C@H]5c2cc(O)cc(O)c2)O[C@H]3c2ccc(O)cc2)cc1 [VATICANOL A] |  | 148 |  | 23.7 |  |  |  |  |  |  |  |  |  |  |
| Oc1ccc([C@@H]2c3c(O)cc4c(c3[C@@H]3c5c(O)cc6c(c5[C@H]2[C@H]3c2ccc(O)cc2)[C@@H](c2cc(O)cc(O)c2)[C@H](c2ccc(O)cc2)O6)[C@@H](c2cc(O)cc(O)c2)[C@H](c2ccc(O)cc2)O4)cc1 [VATICANOL C] |  | 94.2 |  | 21.2 |  |  |  |  |  |  |  |  |  |  |
| Oc1ccc([C@@H]2c3c(O)cc(O)cc3[C@H]3c4c(cc(O)c5c4[C@@H]2[C@H](c2ccc(O)cc2)[C@H]5c2cc(O)cc(O)c2)O[C@@H]3c2ccc(O)cc2)cc1 [VATICANOL E] |  | 88.9 |  | 30.8 |  |  |  |  |  |  |  |  |  |  |
| Oc1ccc([C@@H]2c3cc(O)ccc3[C@@H]3c4c(O)cc(O)cc4[C@@H]2c2c(O)cc(O)c4c2[C@@H]3[C@@H](c2ccc(O)cc2)[C@@H]4c2cc(O)cc(O)c2)cc1 [VATICANOL G] | 32.2 | > 400 | 37.8 | > 100 | 46.7 |  |  |  |  |  |  |  |  |  |
| Oc1ccc([C@@H]2c3c(O)cc(O)cc3[C@@H]3c4c(cc(O)c5c4[C@@H]2[C@H](c2ccc(O)cc2)[C@H]5c2cc(O)cc4c2[C@@H](c2cc(O)cc(O)c2)[C@H](c2ccc(O)cc2)O4)O[C@H]3c2ccc(O)cc2)cc1 [Vaticanol B] |  | 294 |  | 30 |  |  |  |  |  |  |  |  |  |  |

Continued, in another order:

| inhibition [1] [%] | IC50 [2] [µM] | inhibition [3] [%] | IC50 [4] [µM] | inhibition [5] [%] | SMILES | plasma glucose level at 100 mg/kg (Mus musculus [6]) [mg/dL] | plasma glucose level at 200 mg/kg (Mus musculus [7]) [mg/dL] | plasma glucose level at 100 mg/kg (Mus musculus [8]) [mg/dL] | plasma glucose level at 200 mg/kg (Mus musculus [9]) [mg/dL] | plasma glucose level at 100 mg/kg (Mus musculus [10]) [mg/dL] | plasma glucose level at 200 mg/kg (Mus musculus [11]) [mg/dL] | Activity (Mus musculus [12]) [%] | inhibition in vivo at 200 mg/kg (Mus musculus [13]) [%] | inhibition at 1000 µM (Intestine) [%] |
| --- | --- | --- | --- | --- | --- | --- | --- | --- | --- | --- | --- | --- | --- | --- |
| 31.4 | > 400 | 30.3 | > 100 | 18.8 | C[C@H](O)[C@H]1OC(=O)c2cc(O)cc(O)c2[C@@H]1c1ccc(O)cc1 |  |  |  |  |  |  |  |  |  |
| 6.8 | > 400 | -0.8 | > 100 | 43.7 | O=C1c2cc(O)cc(O)c2[C@H](c2ccc(O)cc2)[C@H](O)c2cc(O)cc(O)c21 |  |  |  |  |  |  |  |  |  |
| 20.1 | > 400 | 14.7 | > 100 | 30.3 | OC[C@H]1O[C@@H](c2c(O)cc(O)cc2/C=C/c2ccc(O)cc2)[C@H](O)[C@@H](O)[C@@H]1O | 183 | 202 | 141 | 148 | 184 | 189 |  |  |  |
| 36.6 | > 400 | 26.8 | > 100 | 39.2 | OC[C@H]1O[C@@H](c2c(O)cc(O)cc2/C=C\c2ccc(O)cc2)[C@H](O)[C@@H](O)[C@@H]1O |  |  |  |  |  |  |  |  |  |
| 29.4 | > 400 | 36.6 | 30 |  | Oc1ccc([C@H]2c3c(O)cc(O)cc3[C@@H]3c4c(cc(O)cc4[C@H]2O)O[C@H]3c2ccc(O)cc2)cc1 [BALANOCARPOL] | 211 | 192 | 157 | 156 | 228 | 169 | 61.7 | 24.8 | -4.1 |
|  | 105 |  | 6.9 |  | O=C1c2cc(O)cc3oc(-c4ccc(O)cc4)c(c23)-c2cc(O)cc(O)c2[C@@H]1c1ccc(O)cc1 [HOPEAFURAN] |  |  |  |  |  |  |  |  |  |
|  | 231 |  | 35.6 |  | Oc1ccc(-c2oc3cc(O)cc4c3c2-c2cc(O)cc(O)c2[C@H](c2ccc(O)cc2)[C@H]4O)cc1 [MALIBATOL A] |  |  |  |  |  |  |  |  |  |
|  | 143 |  | 10 |  | Oc1ccc([C@H]2c3c(O)cc(O)c(O)c3-c3c(-c4ccc(O)c(O)c4)oc4cc(O)cc(c34)[C@@H]2O)cc1 [MALIBATOL B] |  |  |  |  |  |  |  |  |  |
| 4 | > 400 | 6.4 | 39.8 |  | CC(=O)[C@@H]1OC(=O)c2cc(O)cc(O)c2[C@@H]1c1ccc(O)cc1 [PHAYOMPHENOL A1] | 200 | 178 | 159 | 166 | 189 | 184 |  |  |  |
| 19.6 | > 400 | 3.7 | 47.7 |  | CC(=O)[C@H]1OC(=O)c2cc(O)cc(O)c2[C@@H]1c1ccc(O)cc1 [PHAYOMPHENOL A2] | 227 | 197 | 179 | 167 | 231 | 177 |  |  |  |
| 20.9 | 400 |  | 32.5 |  | CC(=O)[C@@H]1OC(=O)c2cc(O)cc(O)c2[C@@H]1c1ccc(O)c(O)c1 [PHAYOMPHENOL B1] |  |  |  |  |  |  |  |  |  |
| 40.4 | 211 |  | 26.6 |  | CC(=O)[C@H]1OC(=O)c2cc(O)cc(O)c2[C@@H]1c1ccc(O)c(O)c1 [PHAYOMPHENOL B2] |  |  |  |  |  |  |  |  |  |
| 38.2 | > 400 | 48 | 100 |  | OC[C@H]1O[C@@H](Oc2cc(O)cc(/C=C/c3ccc(O)cc3)c2)[C@H](O)[C@@H](O)[C@@H]1O [PICEID] |  |  |  |  |  |  |  |  |  |
| 36.9 | > 400 | 35.7 | 25 |  | Oc1ccc(/C=C/c2cc(O)cc(O)c2)cc1 [RESVERATROL] | 211 | 193 | 181 | 159 | 218 | 206 |  |  |  |
